Source: patent US9579337B2, “Use of uridine and deoxyuridine to treat folate-responsive pathologies” (priority 2011, dated 2017)

Assays:
[1] = test system: Shmt1-deficient embryos (NTDs, exencephaly); assay: Neural tube defects (exencephaly) in embryos of Shmt1 dams fed nucleoside-supplemented diets; assay type: in vivo, mouse; conditions: for prevention of NTDs by supplementation of the folate-deficient (FD) diet: maternal folate deficiency, 0.2% thymidine or 0.1% 2'-deoxyuridine in diet; for Shmt1+/+ embryos with exencephaly: crosses involving Shmt1+/+ dams
Description: NTDs were examined in litters harvested from crosses of 129SvEv-Shmt1 (N=10 and more) mice. Shmt1^+/−, Shm1^+/+, and Shmt1^−/− mice were generated from Shmt1^+/− breeding pairs maintained as a heterozygote breeding colonies. Shmt1^+/+ and Shmt1^−/− female mice were then crossed to Shmt1^+/− male mice for timed mating experiments, as described below.
Mice were maintained on a 12-hour light/dark cycle in a temperature-controlled room. For studies investigating Shmt1 disruption and NTDs, female mice were randomly assigned at weaning to experimental AIN93G diets containing folic acid (C) or AIN93G lacking folic acid (FD) (FIG. 2) and including 0.6% uridine (Rudolph F B & Van Buren C T (1993), which is hereby incorporated by reference in its entirety), 0.2% thymidine (Iwasa et al., “The Well-Balanced Nucleoside-Nucleotide Mixture ‘0G-VI’ for Special Medical Purposes,” Nutrition 13(4):361-364 (1997), which is hereby incorporated by reference in its entirety), or 0.1% 2′-Deoxyuridine supplementation (Dyets, Bethlehem, Pa.). Diets were assigned with these abbreviations: AIN-93G as control (“C”); Folate Deficient (“FD”), C+ supplemented with 0.6% uridine (“C+U”), C+ supplemented with 0.2% thymidine (“C+T”), C+ supplemented with 0.1% 2′-Deoxyuridine (“C+dU”), FD+ supplemented with 0.6% uridine (“FD+U”), FD+ supplemented with 0.2% thymidine (“FD+T”), FD+ supplemented with 0.1% 2′-Deoxyuridine (“FD+dU”).
(§1) For all studies, mouse dams were maintained on diet from weaning throughout the breeding period and for the duration of gestation, until killed. Virgin female mice aged 70-120 days were housed overnight with males. The following morning, females were examined for the presence of a vaginal plug. Nine o'clock a.m. the day of the plug appearance was designated as gestational day 0.5 (E0.5). Pregnant females were sacrificed by cervical dislocation at E11.5 and blood was collected by cardiac puncture. Gravid uteri were removed and all implants and resorption sites were recorded. Embryos were examined for presence of NTDs and measured for crown-rump length. All yolk sacs were collected for subsequent genotyping. Embryos were extracted at E11.5 and rapidly frozen in liquid nitrogen followed by storage at −80° C. for biochemical analyses. Embryos examined for morphological abnormalities were derived at E11.5, and fixed in 10% neutral buffered formalin.
Analysis of NTD incidence, including differences between Genotypes, Diets, and interactions of Diet×genotype were analyzed by 2-factor ANOVA by using Tukey's honestly significant difference for post hoc analysis.

[2] = test system: embryos and litters of Shmt1 dams; assay: Implants, resorptions, dead embryos and crown-rump length in litters of Shmt1 dams; assay type: in vivo, mouse; conditions: for implantation, dead embryos occurrence, rates of resorption compared with C diet: litters from dams
Description: as §1
Analysis of embryonic CR length, total litter resorptions and implants was analyzed by 2-factor ANOVA with Tukey's honestly significant difference for post hoc analysis, in which litter was considered as a random effect. Independent variables included maternal genotype and diet. Resorption rate was calculated as the ratio of resorptions/total implants per litter and log-transformation was applied to normalize the data. Chi-squared analyses were used to assess any deviation from expected genotype ratios based on Mendelian inheritance. Analysis of uracil concentration, Thymidine, deoxyuridine, glucose and folate were conducted by 2-factor ANOVA with Tukey honestly significant differences for post hoc analysis. Independent variables included maternal genotype and diet. All test were performed in JMP version 8.02 (SAS institute). Western blots analyses were assessed using ANOVA and Dunnett's Multiple Comparison Test. […] All statistics were performed using GraphPad Prism version 4.00 for Windows, GraphPad Software, San Diego Calif. USA.

female mice = assay: Gross observations in female mice weaned on the diets; assay type: in vivo, mouse
[3] = test system: intestinal tumors in Apc-min mice; assay: Intestinal tumor number in Apc-min mice fed supplemented diets; assay type: in vivo, mouse; conditions: for intestinal tumors (number per mouse): AIN-93G diet lacking folic acid supplemented with 0.6% uridine or 0.1% deoxyuridine, FD alone 35+/-5
Description: SHMT1 null ([…]) mice were generated as previously described (MacFarlane et al., “Cytoplasmic Serine Hydroxymethyltransferase Regulates the Metabolic Partitioning of Methylenetetrahydrofolate but is Not Essential in Mice,” J. Biol. Chem. 283(38):25846-25853 (2008), which is hereby incorporated by reference in its entirety) and backcrossed a minimum of 10 generations onto the C57BL/6J strain. Mice were genotyped using the forward primer 5′-GACACTGTTCACATCCCTC-3′ (SEQ ID NO:1) and the reverse primer 5′-CAAAACATTCGGGAGCCTC-3′ (SEQ ID NO:2). The forward primer corresponds to an intron 6 sequence located 5′ to a loxP site and exon 7 and the reverse primer corresponds to an intron 7 sequence located downstream of a 3′ loxP site (MacFarlane et al., “Cytoplasmic Serine Hydroxymethyltransferase Regulates the Metabolic Partitioning of Methylenetetrahydrofolate but is Not Essential in Mice,” J. Biol. Chem. 283(38):25846-25853 (2008), which is hereby incorporated by reference in its entirety). C57BL/6J-Apc^Min/J (Apc^min/+) mice were obtained. Genotyping of Apc^min/+ mice was performed using the following primers recommended by The Jackson Laboratory protocol: wild-type forward primer 5′-GCCATCCCTTCACGTTAG-3′ (SEQ ID NO:3), Min forward primer 5′-[…]-3′ (SEQ ID NO:4), and a common reverse primer 5′-TTCCACTTTGGCATAAGGC-3′ (SEQ ID NO:5). […]
The small intestine and colon were removed, flushed with cold PBS, opened longitudinally, and laid flat lumen side up for examination using a dissecting microscope as previously described (Chiu et al., “Sulindac Causes Rapid Regression of Preexisting Tumors in Min/+Mice Independent of Prostaglandin Biosynthesis,” Cancer Res. 57:4267-73 (1997), which is hereby incorporated by reference in its entirety). Tumors were counted according to intestinal location (small intestine or colon) and their diameter measured by a pathologist-trained investigator who was blinded to the genotype of the intestinal specimen. Tumor load is a function of tumor number and area and was calculated as the total tumor area per mouse. […]

splotch mutant (Pax3^Sp) = conditions: splotch mutant / splotch homozygotes; literature (Wlodarczyk 2005; Fleming 1998; others); cited from earlier work
[4] = Shmt1-/- dams fed FD+T diet (0.2% thymidine), out of 32
[5] = Shmt1+/+ dams, C+U diet (inferred), out of 69
[6] = Shmt1+/+ female mice fed FD+U diet (0.6% uridine), out of 56

With `O=c1ccn([C@H]2C[C@H](O)[C@@H](CO)O2)c(=O)[nH]1` [deoxyuridine, 2′-Deoxyuridine] the NTD occurrence ([1]; Shmt1+/+ and Shmt1-/- dams fed FD+dU diet (folic acid deficient + 0.1% 2'-deoxyuridine)) was “did not exhibit NTDs”, the “prevention of NTDs by supplementation of the folate-deficient (FD) diet” value [1] was “prevented NTDs” and the “number of dead embryos” value ([2]; dams fed FD+dU and C+dU diets (0.1% 2'-deoxyuridine)) was “higher number of dead embryos, but the differences did not reach significance”. For the same compound, the “implantation, dead embryos occurrence, rates of resorption compared with C diet” value [2] was “Neither implantation, dead embryos occurrence, or rates of resorption were significantly different”, the other gross findings (female mice; dU and dUFD groups) was “Edematous of internal organs (up to 4 mice from dU and dUFD groups together), blood in GI track and uterus, and discoloration of pancreas” and the “lymphoid aggregates on colons compared to other groups” value (female mice; female mice weaned on C+dU and FD+dU) was “High frequency of numerous lymphoid aggregates”. For the same compound, the “intestinal tumors (number per mouse)” value [3] was 29+/−2.0 and the “effect on tumor number” value ([3]; FD diet + 0.1% deoxyuridine) was “no effect on tumor number”.

In the case of `Cc1cn([C@H]2C[C@H](O)[C@@H](CO)O2)c(=O)[nH]c1=O` [thymidine, reference compound], the “number of embryos with NTDs” value ([1]; Shmt1+/+ dams fed FD+T diet (0.2% thymidine), out of 49) is reported as 2 NTDs, the “frequency of NTDs (exencephaly) in embryos” value ([1]; Shmt1+/+ dams fed FD+T diet (AIN93G lacking folic acid + 0.2% thymidine), out of 49) is reported as 4.1% and the “frequency of NTDs (exencephaly) in embryos” value [1, 4] is reported as 9.4%. The “number of embryos with NTDs” value [1, 4] was 3 NTDs, the “Shmt1+/+ embryos with exencephaly” value [1] was “one” and the NTD occurrence ([1]; dams fed C+T diet (AIN-93G + 0.2% thymidine)) was “No NTDs were uncovered”. For the same compound, the “prevention of NTDs by supplementation of the folate-deficient (FD) diet” value [1] was “did not prevent NTD occurrence and not”.

For `Nc1nc2ncc(CNc3ccc(C(=O)N[C@@H](CCC(=O)O)C(=O)O)cc3)nc2c(=O)[nH]1` [folic acid], the “rescue / prevention of NTDs by dietary supplementation” value (splotch mutant (Pax3^Sp)) is given as “can be rescued”.

In the case of `O=c1ccn([C@@H]2O[C@H](CO)[C@@H](O)[C@H]2O)c(=O)[nH]1` [uridine], the “frequency of exencephaly in embryos” value [1, 5] is reported as 5.8%, the “number of embryos with NTDs” value [1, 5] is reported as 4 NTDs and the “frequency of exencephaly in embryos” value [1, 6] is reported as 5.4%. For the same compound, the “number of embryos with exencephaly” value [1, 6] was 3, the “number of embryos with exencephaly” value ([1]; Shmt1-/- dams fed FD+U diet (0.6% uridine), of 44 viable embryos) was 7 and the “frequency of exencephaly in embryos” value ([1]; Shmt1-/- dams fed FD+U diet (folate deficient + 0.6% uridine), of 44 viable embryos) was 15.9%. For the same compound, the “frequency of exencephaly in embryos” value ([1]; Shmt1-/- dams, C+U diet (AIN-93G + 0.6% uridine; diet inferred from next sentence), out of 50 viable embryos) was 6%, the “number of embryos with NTDs” value ([1]; Shmt1-/- dams, C+U diet (inferred), out of 50 viable embryos) was 3 NTDs and the “Shmt1+/+ embryos with exencephaly” value [1] was “One”. For the same compound, the “effect on NTD frequency” value ([1]; uridine supplementation, independent of dietary folic acid) was “exacerbated NTD frequency”, the “implantation, dead embryos occurrence, rates of resorption compared with C diet” value [2] was “Neither implantation, dead embryos occurrence, or rates of resorption were significantly different” and the “intestinal tumors (number per mouse)” value [3] was 18+/−2.
